Activity calls are given as the source filed them. No cut-off for these calls is given here.
Key:
[1] = tested on: Serum; test: Immunomodulatory activity in mouse serum assessed as change on C3a level at 25 to 200 ug/ml incubated for 1 hr by ELISA based complement assay; type: functional, cell-free; conditions: dose 25-200 µg/ml
[2] = tested on: Staphylococcus haemolyticus; test: Antimicrobial activity against Staphylococcus haemolyticus ATCC 29970 assessed as inhibition of microbial growth at <= 200 ug/ml incubated for 18 hrs by micro-broth dilution method; type: functional, organism-based; conditions: dose <= 200.0 µg/ml
[3] = tested on: Nakaseomyces glabratus; test: Antimicrobial activity against Candida glabrata ATCC 66032 assessed as inhibition of microbial growth at <= 200 ug/ml incubated for 18 hrs by micro-broth dilution method; type: functional, organism-based; conditions: dose <= 200.0 µg/ml
[4] = tested on: Escherichia coli; test: Antimicrobial activity against Escherichia coli ATCC 25922 assessed as reduction in microbial colony forming unit at 200 ug/ml incubated for 1 to 4 hrs by time-kill kinetics based analysis; type: functional, organism-based; conditions: dose 200.0 µg/ml, time 1-4 hrs
[5] = tested on: Staphylococcus aureus; test: Antimicrobial activity against Methicillin-resistant Staphylococcus aureus assessed as reduction in microbial colony forming unit at 200 ug/ml incubated for 1 to 4 hrs by time-kill kinetics based analysis; type: functional, organism-based; conditions: dose 200.0 µg/ml, time 1-4 hrs
[6] = tested on: Staphylococcus aureus; test: Antibacterial activity against Staphylococcus aureus ATCC 25923 infected in C57BL/6 mouse assessed as reduction in bacterial load at 10 mg/kg,ip pre-administrated 5 hrs before bacterial infection; type: functional, organism-based
[7] = tested on: Escherichia coli; test: Antibacterial activity against Carbapenem-resistant Escherichia coli infected in C57BL/6 mouse assessed as reduction in bacterial load at 10 mg/kg,ip administrated 5 hrs after bacterial infection; type: functional, organism-based
[8] = tested on: Staphylococcus aureus; test: Antibacterial activity against Methicillin-resistant Staphylococcus aureus infected in C57BL/6 mouse assessed as reduction in TNF-alpha level in peritoneal fluid at 10 mg/kg,ip pre-administrated 5 hrs before bacterial infection measured after 24 hrs by ELISA; type: functional, organism-based; conditions: time 29.0 hrs
[9] = tested on: Staphylococcus aureus; test: Antibacterial activity against Methicillin-resistant Staphylococcus aureus infected in C57BL/6 mouse assessed as reduction in IL-6 level in peritoneal fluid at 10 mg/kg,ip pre-administrated 5 hrs before bacterial infection measured after 24 hrs by ELISA; type: functional, organism-based; conditions: time 29.0 hrs
[10] = tested on: Staphylococcus aureus; test: Antibacterial activity against Methicillin-resistant Staphylococcus aureus infected in C57BL/6 mouse assessed as reduction in IL-1beta level in peritoneal fluid at 10 mg/kg,ip pre-administrated 5 hrs before bacterial infection measured after 24 hrs by ELISA; type: functional, organism-based; conditions: time 29.0 hrs
[11] = tested on: Escherichia coli; test: Antibacterial activity against Carbapenem-resistant Escherichia coli infected in C57BL/6 mouse assessed as reduction in IL-6 level in peritoneal fluid at 10 mg/kg,ip administrated 5 hrs after bacterial infection measured after 24 hrs by ELISA; type: functional, organism-based; conditions: time 19.0 hrs
[12] = tested on: Staphylococcus aureus; test: Antibacterial activity against Staphylococcus aureus ATCC 25923 infected in C57BL/6 mouse assessed as reduction in IL-1beta level in serum at 10 mg/kg,ip administrated 5 hrs after bacterial infection measured after 24 hrs by ELISA; type: functional, organism-based; conditions: time 19.0 hrs
[13] = tested on: Escherichia coli; test: Antibacterial activity against Escherichia coli ATCC 25922 infected in C57BL/6 mouse assessed as reduction in TNF-alpha level in serum at 10 mg/kg,ip pre-administrated 5 hrs before bacterial infection measured after 24 hrs by ELISA; type: functional, organism-based; conditions: time 29.0 hrs
[14] = tested on: Escherichia coli; test: Antibacterial activity against Escherichia coli ATCC 25922 infected in C57BL/6 mouse assessed as reduction in IL-6 level in serum at 10 mg/kg,ip administrated 5 hrs after bacterial infection measured after 24 hrs by ELISA; type: functional, organism-based; conditions: time 19.0 hrs
[15] = tested on: Staphylococcus aureus; test: Antibacterial activity against Methicillin-resistant Staphylococcus aureus infected in C57BL/6 mouse assessed as reduction in TNF-alpha level in serum at 10 mg/kg,ip administrated 5 hrs after bacterial infection measured after 24 hrs by ELISA; type: functional, organism-based; conditions: time 19.0 hrs
[16] = tested on: Escherichia coli; test: Antibacterial activity against Escherichia coli ATCC 25922 infected in C57BL/6 mouse assessed as increase in survival rate at 10 mg/kg,ip pre-administrated 5 hrs before bacterial infection measured after 7 days; type: functional, organism-based; conditions: time 7.0 day
[17] = tested on: Mus musculus; test: Immunomodulatory activity in cyclophosphamide immunosuppressed C57BL/6 mouse with neutrophil depletion model assessed as change in T-lymphocytes in peritoneal lavage at 10 mg/kg,ip administration measured after 5 to 24 hrs by flow cytometry; type: functional, organism-based; conditions: time 5-24 hrs
[18] = tested on: Mus musculus; test: Immunomodulatory activity in clodronate liposome immunosuppressed C57BL/6 mouse with neutrophil depletion model assessed as change in T-lymphocytes in peritoneal lavage at 10 mg/kg,ip administration measured after 5 to 24 hrs by flow cytometry; type: functional, organism-based; conditions: time 5-24 hrs
[19] = tested on: Mus musculus; test: Induction of chemotaxis in C57BL/6 mouse assessed as upregulation of CXCL1 expression in peritoneal lavage at 10 mg/kg,ip administration measured at 5 to 24 hrs by ELISA; type: functional, organism-based; conditions: time 5-24 hrs
[20] = tested on: Peritoneal macrophage cell; test: Induction of phagocytosis in mouse Peritoneal macrophage assessed as increase in neutral red dye uptake by measuring optical density absorbance at 100 ug/ml incubated for 24 hrs followed by dye addition measured after 4 hrs by absorbance based assay (reference value: 0.089); type: functional; conditions: dose 100 µg/ml; time 28 hrs
[21] = tested on: Neutrophil; test: Induction of degranulation in mouse bone marrow derived neutrophil assessed as increase in BPI release at 25 to 100 ug/ml incubated for 6 hrs by ELISA; type: functional, cell-based; conditions: dose 25-100 µg/ml
[22] = tested on: Neutrophil; test: Induction of chemotaxis in mouse bone marrow derived neutrophil assessed as increase in neutrophil migration at 100 ug/ml preincubated with KN62 for 30 mins followed by compound addition measured after 8 hrs by crystal violet staining based indirect transwell assay; type: functional, cell-based; conditions: dose 100.0 µg/ml
[23] = tested on: Neutrophil; test: Induction of chemotaxis in mouse bone marrow derived neutrophil assessed as increase in neutrophil migration at 100 ug/ml preincubated with WRW4 for 30 mins followed by compound addition measured after 8 hrs by crystal violet staining based indirect transwell assay; type: functional, cell-based; conditions: dose 100.0 µg/ml
[24] = tested on: Peritoneal macrophage; test: Induction of chemotaxis in mouse Peritoneal macrophage assessed as upregulation of CXCL1 production at 100 ug/ml preincubated with WRW4 followed by compound addition by ELISA; type: functional, cell-based; conditions: dose 100.0 µg/ml
[25] = tested on: Peritoneal macrophage cell; test: Induction of chemotaxis in mouse Peritoneal macrophage assessed as upregulation of MCP-1 production at 100 ug/ml preincubated with WRW4 followed by compound addition by ELISA; type: functional, cell-based; conditions: dose 100.0 µg/ml
[26] = tested on: Peritoneal macrophage; test: Immunoregulatory activity in mouse Peritoneal macrophage assessed as upregulation of ERK phosphorylation incubated for 1 hr by Western blotting analysis; type: functional, cell-based
[27] = tested on: Peritoneal macrophage; test: Immunoregulatory activity in mouse Peritoneal macrophage assessed as upregulation of IkappaBalpha phosphorylation incubated for 1 hr by Western blotting analysis; type: functional, cell-based
[28] = tested on: Peritoneal macrophage; test: Immunoregulatory activity in mouse Peritoneal macrophage assessed as change in total p38 expression at 25 to 100 ug/ml incubated for 1 hr by Western blotting analysis; type: functional, cell-based; conditions: dose 25-100 µg/ml
[29] = tested on: Mus musculus; test: Antithrombotic activity in BALB/c mouse dorsal skin defect model assessed as increase in skin bleeding time at 30 mg/kg,SC administration; type: functional, organism-based
[30] = tested on: Mus musculus; test: Anticoagulation activity in mouse assessed as change in plasma APC expression at 10 mg/kg,ip measured after 24 hrs by ELISA; type: functional, organism-based
[31] = tested on: Mus musculus; test: Anticoagulation activity in mouse infected with Methicillin-resistant Staphylococcus aureus assessed as increase in plasma AT-III expression at 10 mg/kg,ip pre-administrated 5 hrs before bacterial infection measured after 24 hrs by ELISA; type: functional, organism-based; conditions: time 29.0 hrs

## CC[C@H](C)[C@H](NC(=O)[C@@H]1CSSC[C@H](NC(=O)[C@H](CCC(=O)O)NC(=O)[C@@H](NC(=O)[C@H](CCCCN)NC(=O)[C@H](Cc2c[nH]cn2)NC(=O)[C@@H](NC(=O)[C@H](CCCCN)NC(=O)[C@H](CCC(=O)O)NC(=O)[C@H](C)NC(=O)[C@H](CCC(=O)O)NC(=O)[C@H](CCC(=O)O)NC(=O)[C@H](CCC(=O)O)NC(=O)[C@H](C)N)[C@@H](C)O)[C@@H](C)O)C(=O)N[C@@H](CC(C)C)C(=O)N[C@@H](CCC(=O)O)C(=O)N1)C(=O)N[C@@H](Cc1ccccc1)C(=O)N[C@H](C(=O)N[C@@H](CC(C)C)C(=O)N[C@@H](CC(C)C)C(=O)N1CCC[C@H]1C(=O)N1CCC[C@@H]1C(=O)N[C@H](C)C(=O)O)[C@@H](C)O
[1]
  Activity: inactive
[2]
  Activity: inactive
[3]
  Activity: inactive
[4]
  Activity: inactive
[5]
  Activity: inactive
[6]
  Activity: Active
[7]
  Activity: Active
[8]
  Activity: Active
[9]
  Activity: Active
[10]
  Activity: Active
[11]
  Activity: Active
[12]
  Activity: Active
[13]
  Activity: Active
[14]
  Activity: Active
[15]
  Activity: Active
[16]
  Activity: Active
[17]
  Activity: inactive
[18]
  Activity: inactive
[19]
  Activity: inactive
[20]
  OD: 0.111
[21]
  Activity: Active
[22]
  Activity: Active
[23]
  Activity: Active
[24]
  Activity: Active
[25]
  Activity: Active
[26]
  Activity: Dose-Dependent Effect
[27]
  Activity: Dose-Dependent Effect
[28]
  Activity: inactive
[29]
  Activity: inactive
[30]
  Activity: inactive
[31]
  Activity: Active
